{"source": "patent US20230190870A1", "about": "“Method for Treating Lysosomal Storage Diseases with Histatin Peptides” (THE BOARD OF TRUSTEES OF THE UNIVERSITY OF ILLINOIS, priority 2020, published 2023)", "key": {"GST-TMEM97 (108-176)": {"target": "T1, GST-TMEM97 (108-176) (Homo sapiens, UniProt Q5BJF2)", "T1 construct": "GST-TMEM97 (108-176, recombinant GST-C terminal from wheat germ); purchased Abnova (Taipei City, Taiwan); host or cells: wheat germ (cell-free)", "T1 sequence (Q5BJF2 108-176)": "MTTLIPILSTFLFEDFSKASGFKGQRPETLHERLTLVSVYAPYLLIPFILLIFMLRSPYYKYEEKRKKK", "test": "Surface plasmon resonance, immobilized GST-TMEM97 (108-176)", "assay_type": "binding", "settings": "for % Rmax: SPR", "method": "(§1) Surface Plasmon Resonance (SPR). Recombinant full-length TMEM97 (also called MAC30, from HEK293 cells) and GST-TMEM97 (108-176, recombinant GST-C terminal from wheat germ) proteins were purchased from OriGene (Rockville, Md.) and Abnova (Taipei City, Taiwan), respectively. Three peptides, TMEM97 (108-176), TMEM97 (108-143) and TMEM97 (144-176), were synthesized. All proteins and peptides were initially prepared in HBS buffer containing 10 mM HEPES, pH 7.4, 150 mM NaCl, and 0.05% surfactant P20. The CM5 sensor surface was first activated by 1-ethyl-3-(3-dimethylaminopropyl) carbodiimide hydrochloride (EDC)/N-hydroxy succinimide (NHS) mixture using a Biacore T200 or Biacore 8K instrument (GE Healthcare). […] Flow channels 1 and 3 were used as references.\n(§2) The three synthesized peptides were diluted to 50 μg/mL in 10 mM sodium acetate at pH 4.0 and immobilized to flow channels 2, 3 and 4, respectively, on another sensor chip. The unmodified surfaces on a flow channel 1 were used as a reference control. Histatin solutions with a series of increasing concentrations (0.78-25 μM at 2-fold dilution) were applied to all four channels at a 30 μL/minute flow rate at 25° C. The data were double-referenced with reference channel and zero concentration responses, and reference subtracted sensorgrams were fitted with 1 to 1 Langmuir kinetic model using a Biacore T200 evaluation software V3.0 or Insight evaluation software. The equilibrium dissociation constants ([…]) were determined from two rate constants (KD=kd/ka).\n(§3) To determine the region(s) of Hst1 that mediate binding to TMEM97, SPR testing was performed with various Hst1 fragments and either recombinant TMEM97 (GST-tagged, wheat-germ derived, C-terminal fragment TMEM97 (108-176)) or synthesized TMEM97 (TMEM97 (108-176), TMEM97 (108-143) and TMEM97 (144-176))."}, "[1]": {"target": "T2, Synthetic TMEM97 (108-143) (Homo sapiens, UniProt Q5BJF2)", "T2 construct": "made in house; host or cells: chemical solid-phase synthesis (Fmoc, Wang resin)", "T2 sequence (Q5BJF2 108-143 limits assumed)": "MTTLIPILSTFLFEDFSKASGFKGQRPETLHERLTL", "test": "Surface plasmon resonance, immobilized synthetic TMEM97 (108-143)", "assay_type": "binding", "settings": "SPR", "method": "as §1, §2\n(§4) To determine more precisely which segment of TMEM97 is necessary for binding of Hst1, multiple synthetic fragments of TMEM97 were generated (Table 6) and binding to Hst1 was tested using SPR. […] Smaller fragments of the C-terminal of TMEM97 were then constructed to represent the (predicted) luminal (108-143) and cytoplasmic (144-176) exposed segments of the C-terminus of TMEM97 based on modeling experiments previously described. […] SPR results for Hst1 were confirmed using ITC as an orthogonal analytical method.\nas §3"}, "[2]": {"target": "T3, Synthetic TMEM97 (144-176) (Homo sapiens, UniProt Q5BJF2)", "T3 construct": "made in house; host or cells: chemical solid-phase synthesis (Fmoc, Wang resin)", "T3 sequence (Q5BJF2 144-176)": "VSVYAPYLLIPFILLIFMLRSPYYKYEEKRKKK", "test": "Surface plasmon resonance, immobilized synthetic TMEM97 (144-176)", "assay_type": "binding", "settings": "SPR", "method": "as §1, §2, §4, §3"}, "[3]": {"tested_on": "Synthetic TMEM97 (144-176)", "test": "Surface plasmon resonance, immobilized synthetic TMEM97 (144-176)", "assay_type": "binding", "settings": "mutations E170A, E171A and E170A/E171A of TMEM97 (144-176)", "method": "as §1, §2, §4, §3"}, "TMEM97 (108-176)": {"target": "T4, TMEM97 (108-176) (Homo sapiens, UniProt Q5BJF2)", "T4 construct": "Three peptides, TMEM97 (108-176), TMEM97 (108-143) and TMEM97 (144-176), were synthesized; made in house; host or cells: chemical solid-phase synthesis (Fmoc, Wang resin)", "T4 sequence (Q5BJF2 108-176)": "as the sequence (Q5BJF2 108-176) above", "test": "Isothermal titration calorimetry, TMEM97 (108-176)", "assay_type": "binding", "settings": "ITC", "method": "Isothermal Titration Calorimetry (ITC). The three synthesized peptides, TMEM97 (108-176), TMEM97 (108-143) and TMEM97 (144-176) were prepared in ITC buffer (10 mM Tris, pH 7.4, 150 mM NaCl, 0.05% polysorbate 20) at 40 μM concentration and placed in the sample cell. All ITC experiments were performed while stirring at 395 rpm, in ITC buffer at 25° C. using a VP-ITC titration microcalorimeter from MicroCal™, LLC (Northampton, Mass.). The microsyringe was loaded with a Histatin 1 solution (500 μM in ITC buffer). All titrations were conducted using an initial injection of 2.5 μL followed by 35 identical injections of 5 μL with a duration of 16 seconds (per injection) and a spacing of 210 seconds between injections. The buffer control titration (Histatin 1 into buffer) signals were subtracted from the experimental data. The collected data were evaluated using NITPIC (NIH), SEDPHAT (NIH), and GUSSI (NIH).\nTo determine more precisely which segment of TMEM97 is necessary for binding of Hst1, multiple synthetic fragments of TMEM97 were generated (Table 6) and binding to Hst1 was tested using SPR. […] Smaller fragments of the C-terminal of TMEM97 were then constructed to represent the (predicted) luminal (108-143) and cytoplasmic (144-176) exposed segments of the C-terminus of TMEM97 based on modeling experiments previously described. […]"}, "NPC1 KD cells": {"tested_on": "NPC1 KD cells", "test": "LC3 immunolocalization in NPC1 KD cells (autophagy)", "assay_type": "cell-based", "settings": "20 μM or 50 μM", "description": "Autophagy. NPC1-deficiency results in increased autophagy as evidenced by elevated microtubule-associated protein 1 light chain 3 (LC3) levels, numerous autophagic vacuoles and enhanced degradation of long-lived proteins (Pacheco, et al. (2007) Human Mol. Genet. 16(12):1495-1503)."}}, "note": "Square brackets hold non-standard residues; d marks the D form. Peptide text beside a SMILES is read from it. pS = N[C@@H](COP(=O)(O)O)C(=O)O", "data": [{"smiles": "CC(C)C[C@H](NC(=O)[C@H](Cc1ccc(O)cc1)NC(=O)[C@H](CC(N)=O)NC(=O)[C@H](CO)NC(=O)CNC(=O)[C@H](Cc1ccc(O)cc1)NC(=O)[C@H](CC(=O)O)NC(=O)CNC(=O)[C@H](Cc1ccc(O)cc1)NC(=O)[C@H](Cc1ccccc1)NC(=O)[C@@H]1CCCN1C(=O)[C@H](Cc1ccccc1)NC(=O)[C@H](CCC(=O)O)NC(=O)[C@H](CCCNC(=N)N)NC(=O)[C@H](Cc1c[nH]cn1)NC(=O)[C@H](CO)NC(=O)[C@H](Cc1c[nH]cn1)NC(=O)[C@H](Cc1c[nH]cn1)NC(=O)[C@H](CCCCN)NC(=O)[C@H](CCC(=O)O)NC(=O)[C@H](Cc1c[nH]cn1)NC(=O)[C@H](Cc1ccccc1)NC(=O)[C@H](CCCCN)NC(=O)[C@H](CCCNC(=N)N)NC(=O)[C@H](CCCNC(=N)N)NC(=O)[C@H](Cc1ccc(O)cc1)NC(=O)CNC(=O)[C@H](Cc1c[nH]cn1)NC(=O)[C@H](Cc1c[nH]cn1)NC(=O)[C@H](CCCNC(=N)N)NC(=O)[C@H](CCCCN)NC(=O)[C@H](CCC(=O)O)NC(=O)[C@H](Cc1c[nH]cn1)NC(=O)[C@H](COP(=O)(O)O)NC(=O)[C@@H](N)CC(=O)O)C(=O)N[C@@H](Cc1ccc(O)cc1)C(=O)N[C@@H](CC(=O)O)C(=O)N[C@@H](CC(N)=O)C(=O)O", "note": "[Hst1] (H-D[pS]HEKRHHGYRRKFHEKHHSHREFPFYGDYGSNYLYDN-OH; N-terminus and C-terminus assumed)", "values": [{"measurement": "% Rmax", "setting": "GST-TMEM97 (108-176)", "result": 43, "unit": "%"}, {"measurement": "% Rmax", "setting": "GST-TMEM97 (108-176); listed as Hst1(1-38)", "result": "(% Rmax = 23%)"}, {"measurement": "effect of added DTG or haloperidol on Hst1 binding", "setting": "GST-TMEM97 (108-176); addition of either DTG or haloperidol", "result": "did not affect"}, {"measurement": "KD / binding", "setting": "[1]", "result": "unable to bind"}, {"measurement": "KD / binding", "setting": "[1]; listed as Hst1(1-38)", "result": "No binding"}, {"measurement": "% Rmax", "setting": "[2]", "result": 21, "unit": "%"}, {"measurement": "Kd", "setting": "[2]", "result": 2400, "unit": "nM"}, {"measurement": "% Rmax", "setting": "[2]; listed as Hst1(1-38)", "result": "(% Rmax = 22%)"}, {"measurement": "effect of TMEM97 mutations on Hst1 binding", "setting": "[3]", "result": "did not affect"}, {"measurement": "ΔS", "setting": "TMEM97 (108-176)", "result": "11.6±3.4", "unit": "cal/mol K"}, {"measurement": "Kd", "setting": "TMEM97 (108-176); 25° C.", "result": "890 ± 200", "unit": "nM"}, {"measurement": "LC3 levels", "setting": "NPC1 KD cells", "result": "dose-dependent reduction in LC3 levels"}]}]}
